13 compounds from patent US11111245B2, “Derivatives of N-cycloalkyl/heterocycloalkyl-4-(imidazo[1,2-a]pyridine)pyrimidin-2-amine as therapeutic agents” (Aucentra Therapeutics Pty Ltd, priority 2017, dated 2021) can be followed below.

Holding throughout (assay type): biochemical
The target in assay [1] is CDK4/D1 (Homo sapiens, UniProt P11802). Description: ADP Glo Kinase assay CDK4/D1. As to conditions: CDK4D1; for remaining activity at 10 µM: compound at 10 μM, read-out: residual activity (%) at 10 μM CDK4D1; for Ki: read-out: CDK inhibition, Ki (μM) CDK4D1. The essentials:
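In-house ADP-Glo assay: CDK4/D1 or CDK6/D3 with RB-CTF substrate in […] Tris pH 7.5, 20 mM MgCl2, 0.4 mM DTT, 0.1 mg/ml BSA; ATP-started, 40 min at 37° C.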

Assay [2] has as its target CDK6/D3 (Homo sapiens, UniProt Q00534). In words: ADP Glo Kinase assay CDK6/D3. The note with it: CDK6D3; for remaining activity at 10 µM: compound at 10 μM, read-out: residual activity (%) at 10 μM CDK6D3; for Ki: read-out: CDK inhibition, Ki (μM) CDK6D3. As to the method: Eurofins Pharma Discovery or Reaction Biology Corporation Kinase Profiler services were used to measure inhibition of CDKs and other kinases by radiometric assay. Inhibition of CDK4/D1, CDK6/D3 and CDK9/T1 were also determined in-house using ADP Glo Kinase assays (Promega Corporation, Madison, USA). Briefly, the kinase reaction for CDK4/D1 and CDK6/D3 was performed with kinase reaction buffer ([…] Tris base pH 7.5, 20 mM MgCl2, 0.4 mM DTT), 0.1 mg/ml BSA and RB-CTF substrate (retinoblastoma protein 1 C-terminal fraction). For CDK9/CyclinT1, the kinase reaction was performed with standard assay buffer and Kinase Dilution Buffer and RBER-IRStide substrate. Serial dilutions of 1:3 were prepared for test compounds for 10 concentrations (from 10 μM to 0.5 nM). The kinase reactions were started by addition of ATP, incubated for 40 min at 37° C. and then stopped by adding 10 μL of ADP Glo reagent. After incubation at room temperature in the dark for 40 min, 20 μL of kinase detection reagent was added per well and incubated for 40 min. Luminescence was measured using an EnVision Multilabel plate reader (PerkinElmer, Buckinghamshire, UK). Positive and negative controls were performed in the presence and absence of CDK kinases, respectively. Half-maximal inhibition (IC50) values were calculated using a 4-parameter logistic non-linear regression model with Graphpad prism (Version 6.0). Apparent inhibition constants (Ki) values were calculated from Km (ATP) and IC50 values for the respective kinases.

The target in assay [3] is CDK9/T1 (Homo sapiens, UniProt P50750). In words: ADP Glo Kinase assay CDK9/T1. The note with it: CDK9T1; read-out: CDK inhibition, Ki (μM) CDK9T1. A digest of the protocol:
(§1)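 Other CDKs and further kinases were profiled externally by radiometric assay. In-house ADP Glo assays covered CDK4/D1 and CDK6/D3 (RB-CTF substrate, pH 7.5 Tris buffer with MgCl2, DTT, BSA) and CDK9/T1 (RBER-IRStide substrate), 40 min at 37° C.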

The target in assay [4] is T1, CDKs and other kinases (Homo sapiens, UniProt P06493).
T1 construct: other: CDK1B; residual activity (%) at 10 μM CDK1B; compound at 10 μM
In words: Radiometric kinase assay (Eurofins Pharma Discovery or Reaction Biology Corporation Kinase Profiler). The note with it: CDK1B; for remaining activity at 10 µM: compound at 10 μM, read-out: residual activity (%) at 10 μM CDK1B; for Ki: read-out: CDK inhibition, Ki (μM) CDK1B. A digest of the protocol:
as §1

Assay [5] deals with T2, CDKs and other kinases (Homo sapiens, UniProt P24941).
T2 construct: other: CDK2A; residual activity (%) at 10 μM CDK2A; compound at 10 μM
The description is as above. The note with it: CDK2A; for remaining activity at 10 µM: compound at 10 μM, read-out: residual activity (%) at 10 μM CDK2A; for Ki: read-out: CDK inhibition, Ki (μM) CDK2A. The essentials: as §1

The target of assay [6] is T3, CDKs and other kinases (Homo sapiens, UniProt P50613).
T3 construct: other: CDK7H; residual activity (%) at 10 μM CDK7H; compound at 10 μM
Described as above. As to conditions: CDK7H; for remaining activity at 10 µM: compound at 10 μM, read-out: residual activity (%) at 10 μM CDK7H; for Ki: read-out: CDK inhibition, Ki (μM) CDK7H. The essentials:
as §1

Chain of CDK4/D1 (P11802 whole entry): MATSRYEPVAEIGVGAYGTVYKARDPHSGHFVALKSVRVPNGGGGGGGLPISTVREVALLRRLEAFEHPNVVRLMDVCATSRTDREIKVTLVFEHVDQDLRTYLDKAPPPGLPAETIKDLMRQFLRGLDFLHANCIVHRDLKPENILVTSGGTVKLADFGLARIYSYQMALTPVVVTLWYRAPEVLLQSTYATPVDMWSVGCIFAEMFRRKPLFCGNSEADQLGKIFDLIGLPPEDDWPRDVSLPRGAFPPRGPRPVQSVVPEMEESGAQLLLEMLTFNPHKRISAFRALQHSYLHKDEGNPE
Chain of CDK4/D1 (P24385 whole entry partner): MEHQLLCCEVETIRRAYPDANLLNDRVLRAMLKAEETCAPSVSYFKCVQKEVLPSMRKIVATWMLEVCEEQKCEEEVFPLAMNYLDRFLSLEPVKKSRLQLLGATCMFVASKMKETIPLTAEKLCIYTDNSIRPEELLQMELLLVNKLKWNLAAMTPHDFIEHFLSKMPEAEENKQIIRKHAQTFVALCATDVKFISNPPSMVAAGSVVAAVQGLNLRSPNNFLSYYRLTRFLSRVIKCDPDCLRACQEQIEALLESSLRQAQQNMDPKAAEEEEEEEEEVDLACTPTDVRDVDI
T1 sequence (P06493 whole entry): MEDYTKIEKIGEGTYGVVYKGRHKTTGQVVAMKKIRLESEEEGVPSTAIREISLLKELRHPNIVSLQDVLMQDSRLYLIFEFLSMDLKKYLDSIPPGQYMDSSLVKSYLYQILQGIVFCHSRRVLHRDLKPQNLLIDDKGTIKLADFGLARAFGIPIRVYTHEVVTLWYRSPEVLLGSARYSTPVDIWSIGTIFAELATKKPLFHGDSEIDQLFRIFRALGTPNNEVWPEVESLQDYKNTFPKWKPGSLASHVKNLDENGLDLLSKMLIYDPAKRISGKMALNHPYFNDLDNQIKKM
Chain of CDK9/T1 (P50750 whole entry): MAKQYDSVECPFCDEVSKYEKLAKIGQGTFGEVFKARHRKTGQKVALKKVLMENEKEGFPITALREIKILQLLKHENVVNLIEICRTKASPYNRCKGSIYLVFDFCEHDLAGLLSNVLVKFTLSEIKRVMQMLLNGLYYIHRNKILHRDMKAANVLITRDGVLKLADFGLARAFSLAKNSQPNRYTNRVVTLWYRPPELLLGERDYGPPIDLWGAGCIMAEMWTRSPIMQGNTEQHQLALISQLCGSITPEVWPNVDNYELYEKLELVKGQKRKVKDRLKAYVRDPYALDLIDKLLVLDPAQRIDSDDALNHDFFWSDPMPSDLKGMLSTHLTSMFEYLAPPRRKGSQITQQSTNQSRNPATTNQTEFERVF
Chain of CDK9/T1 (O60563 whole entry partner): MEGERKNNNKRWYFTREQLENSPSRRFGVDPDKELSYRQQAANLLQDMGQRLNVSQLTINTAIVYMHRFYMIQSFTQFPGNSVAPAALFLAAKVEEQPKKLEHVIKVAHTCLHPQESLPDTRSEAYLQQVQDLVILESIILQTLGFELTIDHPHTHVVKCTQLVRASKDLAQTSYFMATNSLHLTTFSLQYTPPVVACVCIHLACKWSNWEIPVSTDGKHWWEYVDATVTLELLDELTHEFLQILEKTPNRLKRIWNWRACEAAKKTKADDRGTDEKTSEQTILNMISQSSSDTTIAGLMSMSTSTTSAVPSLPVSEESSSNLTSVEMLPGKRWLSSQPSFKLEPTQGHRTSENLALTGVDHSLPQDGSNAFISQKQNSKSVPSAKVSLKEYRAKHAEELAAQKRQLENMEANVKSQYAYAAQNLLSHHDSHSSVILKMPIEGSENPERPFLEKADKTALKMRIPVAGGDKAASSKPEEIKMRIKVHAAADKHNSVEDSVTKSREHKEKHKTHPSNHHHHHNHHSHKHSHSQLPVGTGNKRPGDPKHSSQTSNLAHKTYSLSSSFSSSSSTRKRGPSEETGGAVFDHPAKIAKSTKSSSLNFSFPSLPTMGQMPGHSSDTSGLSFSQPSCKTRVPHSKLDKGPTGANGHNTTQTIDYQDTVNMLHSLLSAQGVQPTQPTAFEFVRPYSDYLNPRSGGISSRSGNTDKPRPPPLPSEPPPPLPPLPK
T3 sequence (P50613 whole entry): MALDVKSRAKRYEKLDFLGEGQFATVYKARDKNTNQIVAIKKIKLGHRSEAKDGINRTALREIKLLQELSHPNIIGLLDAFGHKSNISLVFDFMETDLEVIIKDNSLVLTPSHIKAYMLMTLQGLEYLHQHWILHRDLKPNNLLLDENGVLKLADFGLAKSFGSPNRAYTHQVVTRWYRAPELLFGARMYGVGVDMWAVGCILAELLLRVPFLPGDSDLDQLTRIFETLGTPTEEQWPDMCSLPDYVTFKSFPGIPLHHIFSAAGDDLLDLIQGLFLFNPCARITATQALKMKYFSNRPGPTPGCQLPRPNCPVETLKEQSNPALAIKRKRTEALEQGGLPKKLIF
Chain of CDK6/D3 (Q00534 whole entry): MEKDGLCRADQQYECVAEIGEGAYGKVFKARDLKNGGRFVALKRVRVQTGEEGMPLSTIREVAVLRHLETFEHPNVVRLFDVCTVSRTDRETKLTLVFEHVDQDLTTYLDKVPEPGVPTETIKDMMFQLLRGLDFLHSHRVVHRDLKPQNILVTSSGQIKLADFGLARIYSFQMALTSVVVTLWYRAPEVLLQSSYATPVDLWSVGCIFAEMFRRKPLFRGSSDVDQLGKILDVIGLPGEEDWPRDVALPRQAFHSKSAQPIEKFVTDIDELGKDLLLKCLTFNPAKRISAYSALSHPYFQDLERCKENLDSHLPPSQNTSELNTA
Chain of CDK6/D3 (P30281 whole entry partner): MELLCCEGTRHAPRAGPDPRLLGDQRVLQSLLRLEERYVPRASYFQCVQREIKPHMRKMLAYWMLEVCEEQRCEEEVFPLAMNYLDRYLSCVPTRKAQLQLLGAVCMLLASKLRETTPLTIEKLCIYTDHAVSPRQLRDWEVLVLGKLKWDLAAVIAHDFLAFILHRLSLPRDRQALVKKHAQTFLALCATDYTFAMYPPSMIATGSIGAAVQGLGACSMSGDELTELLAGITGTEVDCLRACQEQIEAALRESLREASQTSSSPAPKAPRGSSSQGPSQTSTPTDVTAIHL

As to `N[C@H]1CC[C@H](Nc2ncc(F)c(-c3cnc4ccc(Nc5cccnc5)cn34)n2)CC1` [Compound 49, (1r,4r)-N^1-(5-Fluoro-4-(6-(pyridin-3-ylamino)imidazo [1,2-a]pyridin-3-yl)pyrimidin-2-yl)cyclohexane-1,4-diamine], the remaining activity at 10 µM worked out at 0% in assay [1]; 5% in assay [2]; 1% in assay [4]; 0% in assay [5]; 3% in assay [6]. In addition, the inhibition constant Ki in assay [3] worked out at 0.003 µM.
For `N[C@H]1CC[C@H](Nc2ncc(F)c(-c3cnc4ccc(Nc5cncnc5)cn34)n2)CC1` [Compound 50, (1r,4r)-N^1-(5-Fluoro-4-(6-(pyrimidin-5-ylamino)imidazo [1,2-a]pyridin-3-yl)pyrimidin-2-yl)cyclohexane-1,4-diamine], the remaining activity at 10 µM in assay [1] is 14%; in assay [2], 4%; in assay [4] it was 1%; in assay [5], 0%; in assay [6] it was 4%. The Ki in assay [3] came out at 0.003 µM.
As for `Cc1cnc(N[C@H]2CC[C@H](N)CC2)nc1-c1cnc2cc(Nc3cncnc3)ccn12` [Compound 56, (1r,4r)-N^1-(5-Methyl-4-(7-(pyrimidin-5-ylamino)imidazo [1,2-a]pyridin-3-yl)pyrimidin-2-yl)cyclohexane-1,4-diamine], the remaining activity at 10 µM is 0% in assay [1]; 5% in assay [2]; 39% in assay [4]; 12% in assay [5]; 22% in assay [6]. Further, the inhibition constant Ki in assay [3] was determined as 0.051 µM.
In the case of `Cc1cnc(N[C@H]2CC[C@H](N)CC2)nc1-c1cnc2ccc(Nc3cncc(C(F)(F)F)c3)cn12` [Compound 65, (1r,4r)-N^1-(5-Methyl-4-(6-((5-(trifluoromethyl)pyridin-3-yl)amino)imidazo[1,2-a]pyridin-3-yl)pyrimidin-2-yl) cyclohexane-1,4-diamine], the residual activity at 10 µM in assay [1] amounted to 125%. Moreover, the remaining activity at 10 µM in assay [2] amounted to 24%; in assay [4], 32%; in assay [5], 12%; in assay [6] it was 31%. In assay [3], the Ki is 0.024 µM.
For the compound `Cc1cnc(N[C@H]2CC[C@H](N)CC2)nc1-c1cnc2ccc(Nc3cncc(F)c3)cn12` [Compound 66, (1r,4r)-N^1-(4-(6-((5-Fluoropyridin-3-yl)amino)imidazo [1,2-a]pyridin-3-yl)-5-methylpyrimidin-2-yl)cyclohexane-1,4-diamine], the inhibition constant Ki in assay [1] was found to be 0.76 µM; in assay [2] it was 0.33 µM; in assay [3] it was 0.007 µM; in assay [4] it was 1.26 µM; in assay [5], 0.18 µM; in assay [6], 3.25 µM.
In the case of `Cc1cnc(N[C@H]2CC[C@H](N)CC2)nc1-c1cnc2ccc(Oc3cncnc3)cn12` [Compound 75, (1r,4r)-N^1-(5-Methyl-4-(6-(pyrimidin-5-yloxy)imidazo [1,2-a]pyridin-3-yl)pyrimidin-2-yl)cyclohexane-1,4-diamine], the remaining activity at 10 µM in assay [1] is 41%; in assay [2], 46%; in assay [4], 52%; in assay [5] it was 22%; in assay [6], 50%. In addition, in assay [3], the inhibitory constant (Ki) worked out at 0.034 µM.
For `Cc1cnc(N[C@H]2CN3CCC2CC3)nc1-c1cnc2ccc(Nc3cncnc3)cn12` [Compound 76, (R)-N-(5-Methyl-4-(6-(pyrimidin-5-ylamino)imidazo [1,2-a]pyridin-3-yl)pyrimidin-2-yl)quinuclidin-3-amine], the remaining activity at 10 µM is 91% in assay [1]; 89% in assay [2]; 72% in assay [4]; 59% in assay [5]; 92% in assay [6]. For the same compound, the Ki in assay [3] came out at 0.485 µM.
As to `N[C@H]1CC[C@H](Nc2ncc(Cl)c(-c3cnc4cc(-c5ccccc5)ccn34)n2)CC1` [Compound 77, (1r,4r)-N^1-(5-Chloro-4-(7-phenylimidazo[1,2-a]pyridin-3-yl)pyrimidin-2-yl)cyclohexane-1,4-diamine], the remaining activity at 10 µM was 5% in assay [1]; 6% in assay [2]; 5% in assay [4]; 0% in assay [5]; 3% in assay [6]. Besides, in assay [3], the Ki is 0.011 µM.
Take `N[C@H]1CC[C@H](Nc2ncc(Cl)c(-c3cnc4cc(-c5cccnc5)ccn34)n2)CC1` [Compound 78, (1r,4r)-N^1-(5-Chloro-4-(7-(pyridin-3-yl)imidazo[1,2-a]pyridin-3-yl)pyrimidin-2-yl)cyclohexane-1,4-diamine]: the remaining activity at 10 µM in assay [1] was found to be 10%; in assay [2], 3%; in assay [4] it was 7%; in assay [5], 0%; in assay [6], 3%. Besides, the inhibitory constant (Ki) in assay [3] amounted to 0.019 µM.
As to `N[C@H]1CC[C@H](Nc2ncc(Cl)c(-c3cnc4ccc(Nc5cncnc5)cn34)n2)CC1` [Compound 88, (1r,4r)-N^1-(5-Chloro-4-(6-(pyrimidin-5-ylamino)imidazo [1,2-a]pyridin-3-yl)pyrimidin-2-yl)cyclohexane-1,4-diamine], the inhibition constant Ki in assay [1] was 0.06 µM; in assay [2] it was 0.034 µM; in assay [3] it was 0.002 µM; in assay [4] it was 0.16 µM; in assay [5], 0.019 µM; in assay [6] it was 1.26 µM.
With `CNC1CCC(Nc2ncc(C)c(-c3cnc4ccc(Nc5cncnc5)cn34)n2)CC1` (stereo not drawn) [Compound 109, N^1-Methyl-N^4-(5-Methyl-4-(6-(pyrimidin-5-ylamino)imidazo[1,2-a]pyridin-3-yl)pyrimidin-2-yl)cyclohexane-1,4-diamine], the Ki was 0.94 µM in assay [1]; 0.21 µM in assay [2]; 0.008 µM in assay [3]; 1.26 µM in assay [4]; 0.18 µM in assay [5]; greater than 10 µM in assay [6].
Take `C[C@]12C[C@]3(C)C[C@](O)(C1)C[C@](Nc1ncc(F)c(-c4cnc5ccc(-c6ccccc6)cn45)n1)(C2)C3` [Compound 110, (1s,3r,5R,7S)-3-((5-Fluoro-4-(6-phenylimidazo[1,2-a]pyridin-3-yl)pyrimidin-2-yl)amino)-5,7-dimethyladamantan-1-ol]: the remaining activity at 10 µM in assay [1] is 99%; in assay [2], 100%; in assay [4] it was 66%; in assay [5], 61%; in assay [6], 87%. Also, in assay [3], the inhibitory constant (Ki) is greater than 5 µM.
In the case of `C[C@]12C[C@]3(C)C[C@](O)(C1)C[C@](Nc1ncc(F)c(-c4cnc5ccc(Nc6cncnc6)cn45)n1)(C2)C3` [Compound 111, (1s,3r,5R,7S)-3-((5-Fluoro-4-(6-(pyrimidin-5-ylamino)imidazo[1,2-a]pyridin-3-yl)pyrimidin-2-yl)amino)-5,7-dimethyladamantan-1-ol], the remaining activity at 10 µM in assay [1] was 29%; in assay [2], 89%; in assay [4], 20%; in assay [5], 11%; in assay [6], 86%. Further, the inhibitory constant (Ki) in assay [3] is 0.108 µM.
